Patent publication US11192891B2, “Diazaspiro ROCK inhibitors” (BRISTOL-MYERS SQUIBB COMPANY, priority 2017, dated 2021)

These molecules were tested against ROCK2 (Homo sapiens, UniProt O75116) (assay: ROCK kinase inhibition assay, FITC peptide substrate, LABCHIP 3000 readout). Conditions: 5 μM ATP, 1.5 μM peptide substrate.
Type: biochemical
Protocol: Compounds were dissolved in DMSO so that the final concentration of DMSO was <2%, and the reaction was initiated with Rho kinase variants. After incubation, the reaction was terminated by the addition of EDTA and the phosphorylated and non-phosphorylated peptides separated using a LABCHIP® 3000 Reader (Caliper Life Sciences). […] Compounds were tested in dose-response format, and the inhibition of kinase activity was calculated at each concentration of compound.

Sequence of ROCK2 (O75116 whole entry, species assumed): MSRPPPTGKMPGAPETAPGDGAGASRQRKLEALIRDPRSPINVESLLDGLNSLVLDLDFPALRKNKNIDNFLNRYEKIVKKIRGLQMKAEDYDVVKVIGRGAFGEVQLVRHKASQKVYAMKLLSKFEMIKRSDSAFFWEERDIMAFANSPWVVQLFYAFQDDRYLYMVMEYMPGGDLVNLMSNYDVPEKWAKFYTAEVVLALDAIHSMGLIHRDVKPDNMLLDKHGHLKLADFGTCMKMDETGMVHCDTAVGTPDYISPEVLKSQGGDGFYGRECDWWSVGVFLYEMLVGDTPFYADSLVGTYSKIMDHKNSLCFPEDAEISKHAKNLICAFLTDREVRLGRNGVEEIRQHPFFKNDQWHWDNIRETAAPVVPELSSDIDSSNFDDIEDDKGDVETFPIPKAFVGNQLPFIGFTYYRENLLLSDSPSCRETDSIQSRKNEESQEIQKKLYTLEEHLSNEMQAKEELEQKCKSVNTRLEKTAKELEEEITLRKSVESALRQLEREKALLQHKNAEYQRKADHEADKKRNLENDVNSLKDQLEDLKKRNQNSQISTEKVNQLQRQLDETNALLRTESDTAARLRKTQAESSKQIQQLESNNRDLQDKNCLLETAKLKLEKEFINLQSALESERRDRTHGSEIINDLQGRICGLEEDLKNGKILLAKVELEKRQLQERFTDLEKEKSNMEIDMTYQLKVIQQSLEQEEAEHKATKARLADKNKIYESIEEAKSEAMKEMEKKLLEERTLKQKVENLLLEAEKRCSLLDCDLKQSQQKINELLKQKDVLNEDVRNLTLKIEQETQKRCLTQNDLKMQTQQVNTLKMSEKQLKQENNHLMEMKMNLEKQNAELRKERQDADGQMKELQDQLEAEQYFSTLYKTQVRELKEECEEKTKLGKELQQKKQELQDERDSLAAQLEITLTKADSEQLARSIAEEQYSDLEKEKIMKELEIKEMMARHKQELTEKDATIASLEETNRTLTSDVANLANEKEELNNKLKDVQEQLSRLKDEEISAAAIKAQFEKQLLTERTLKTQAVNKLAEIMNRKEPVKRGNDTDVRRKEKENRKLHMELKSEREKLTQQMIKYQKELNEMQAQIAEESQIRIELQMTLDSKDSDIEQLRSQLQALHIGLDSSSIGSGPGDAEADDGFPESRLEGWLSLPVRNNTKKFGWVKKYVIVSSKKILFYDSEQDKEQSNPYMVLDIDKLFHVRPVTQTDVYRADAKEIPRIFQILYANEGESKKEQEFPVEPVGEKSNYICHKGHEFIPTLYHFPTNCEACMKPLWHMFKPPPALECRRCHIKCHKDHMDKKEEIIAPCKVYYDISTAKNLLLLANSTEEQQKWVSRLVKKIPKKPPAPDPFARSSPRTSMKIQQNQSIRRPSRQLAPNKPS

| Compound | IC50 [nM] |
| --- | --- |
| COc1ccc(C(=O)N2CCC3(CC2)CCN(c2ccc(-c4cn[nH]c4)c(OC)c2)C3=O)nc1 [Example 16, 2-[3-methoxy-4-(1H-pyrazol-4-yl)phenyl]-8-(5-methoxypyridine-2-carbonyl)-2,8-diazaspiro[4.5]decan-1-one] | 13 |
| COc1cc(N2CCC3(CCN(C(=O)c4ccc(N5CCNCC5)cc4)CC3)C2=O)ccc1-c1cn[nH]c1 [Example 130, 2-[3-methoxy-4-(1H-pyrazol-4-yl)phenyl]-8-[4-(piperazin-1-yl)benzoyl]-2,8-diazaspiro[4.5]decan-1-one] | 0.4 |
| COc1cnc(C(=O)N2CCC3(CC2)CCN(c2ccc(-c4cn[nH]c4)c(OC)c2)C3=O)cn1 [Example 101, 2-[3-methoxy-4-(1H-pyrazol-4-yl)phenyl]-8-(5-methoxypyrazine-2-carbonyl)-2,8-diazaspiro[4.5]decan-1-one] | 86 |
| COc1cc(N2CCC3(CCN(C(=O)c4ccc5cc6n(c5c4)C(C)CNC6=O)CC3)C2=O)ccc1-c1cn[nH]c1 (centres unmarked) [Example 150, 2-[3-methoxy-4-(1H-pyrazol-4-yl)phenyl]-8-{4-methyl-1-oxo-1H,2H,3H,4H-pyrazino[1,2-a]indole-7-carbonyl}-2,8-diazaspiro[4.5]decan-1-one] | 144 |
| COc1cc(N2CCC3(CCN(C(=O)c4ccc(Oc5ccc(Cl)cc5)cc4)CC3)C2=O)ccc1-c1cn[nH]c1 [Example 112, 8-[4-(4-chlorophenoxy)benzoyl]-2-[3-methoxy-4-(1H-pyrazol-4-yl)phenyl]-2,8-diazaspiro[4.5]decan-1-one] | 39 |
| COc1ccc(C(=O)N2CCC3(CC2)CCN(c2cccc(-c4ccc5cn[nH]c5c4)c2)C3=O)cc1 [Example 50] | 1680 |
| COc1cc(N2CCC3(CCN(C(=O)c4ccc(N5CCCNC5=O)cc4)CC3)C2=O)ccc1-c1cn[nH]c1 [Example 126, 2-[3-methoxy-4-(1H-pyrazol-4-yl)phenyl]-8-[4-(2-oxo-1,3-diazinan-1-yl)benzoyl]-2,8-diazaspiro[4.5]decan-1-one] | 7.7 |
| COc1cc(N2CCC3(CCN(C(=O)c4ccc(N5CCCOC5=O)cc4)CC3)C2=O)ccc1-c1cn[nH]c1 [Example 137, 2-[3-methoxy-4-(1H-pyrazol-4-yl)phenyl]-8-[4-(2-oxo-1,3-oxazinan-3-yl)benzoyl]-2,8-diazaspiro[4.5]decan-1-one] | 7.1 |
| COc1cc(N2CCC3(CCN(C(=O)c4ccc(-n5cccn5)cc4)CC3)C2=O)ccc1-c1cn[nH]c1 [Example 124, 2-[3-methoxy-4-(1H-pyrazol-4-yl)phenyl]-8-[4-(1H-pyrazol-1-yl)benzoyl]-2,8-diazaspiro[4.5]decan-1-one] | 62 |
| COc1cc(N2CCC3(CCN(C(=O)c4ccc(-c5nnc(C)o5)cc4)CC3)C2=O)ccc1-c1cn[nH]c1 [Example 162, 2-[3-methoxy-4-(1H-pyrazol-4-yl)phenyl]-8-[4-(5-methyl-1,3,4-oxadiazol-2-yl)benzoyl]-2,8-diazaspiro[4.5]decan-1-one] | 27 |
| COc1cc(N2CCC3(CCN(C(=O)c4cc(C5CC5)on4)CC3)C2=O)ccc1-c1cn[nH]c1 [Example 100, 8-(5-cyclopropyl-1,2-oxazole-3-carbonyl)-2-[3-methoxy-4-(1H-pyrazol-4-yl)phenyl]-2,8-diazaspiro[4.5]decan-1-one] | 6 |
| COc1cc(N2CCC3(CCN(C(=O)c4ccc(-c5cnco5)cc4)CC3)C2=O)ccc1-c1cn[nH]c1 [Example 160, 2-[3-methoxy-4-(1H-pyrazol-4-yl)phenyl]-8-[4-(1,3-oxazol-5-yl)benzoyl]-2,8-diazaspiro[4.5]decan-1-one] | 23 |
| COc1cc(N2CCC3(CCN(C(=O)c4ccc(-n5ccnc5)cc4)CC3)C2=O)ccc1-c1cn[nH]c1 [Example 95, 8-[4-(1H-imidazol-1-yl)benzoyl]-2-[3-methoxy-4-(1H-pyrazol-4-yl)phenyl]-2,8-diazaspiro[4.5]decan-1-one] | 13 |
| CN1CCN(c2ccc(C(=O)N3CCC4(CC3)CCN(c3ccc(-c5ccnc6[nH]ccc56)cc3)C4=O)cc2)CC1 [Example 35, 8-[4-(4-methylpiperazin-1-yl)benzoyl]-2-(4-{1H-pyrrolo[2,3-b]pyridin-4-yl}phenyl)-2,8-diazaspiro[4.5]decan-1-one] | 0.3 |
| COc1cc(N2CCC3(CCN(C(=O)c4csc(-c5ccccc5)n4)CC3)C2=O)ccc1-c1cn[nH]c1 [Example 84, 2-[3-methoxy-4-(1H-pyrazol-4-yl)phenyl]-8-(2-phenyl-1,3-thiazole-4-carbonyl)-2,8-diazaspiro[4.5]decan-1-one] | 138 |
| COc1cc(N2CCC3(CCN(C(=O)c4ccco4)CC3)C2=O)ccc1-c1cn[nH]c1 [Example 63, 8-(furan-2-carbonyl)-2-[3-methoxy-4-(1H-pyrazol-4-yl)phenyl]-2,8-diazaspiro[4.5]decan-1-one] | 1690 |
| COc1cc(N2CCC3(CCN(C(=O)c4cc5ncc(Br)cn5n4)CC3)C2=O)ccc1-c1cn[nH]c1 [Example 93, 8-{6-bromopyrazolo[1,5-a]pyrimidine-2-carbonyl}-2-[3-methoxy-4-(1H-pyrazol-4-yl)phenyl]-2,8-diazaspiro[4.5]decan-1-one] | 5 |
| COc1cc(N2CCC3(CCN(C(=O)c4ccc5nc(C(F)(F)F)cnc5c4)CC3)C2=O)ccc1-c1cn[nH]c1 [Example 138, 2-[3-methoxy-4-(1H-pyrazol-4-yl)phenyl]-8-[2-(trifluoromethyl)quinoxaline-6-carbonyl]-2,8-diazaspiro[4.5]decan-1-one] | 63 |

The next lines start with the values.

| IC50 [nM] | Compound |
| --- | --- |
| 2310 | COc1cc(N2CCC3(CCN(S(=O)(=O)c4ccc5c(c4)C(=O)NC5=O)CC3)C2=O)ccc1-c1cn[nH]c1 [Example 210, 5-({2-[3-methoxy-4-(1H-pyrazol-4-yl)phenyl]-1-oxo-2,8-diazaspiro[4.5]decan-8-yl}sulfonyl)-2,3-dihydro-1H-isoindole-1,3-dione] |
| 3.7 | COc1cc(N2CCC3(CCN(C(=O)c4ccc(-c5ccc(S(C)(=O)=O)cc5)cc4)CC3)C2=O)ccc1-c1cn[nH]c1 [Example 173, 8-{4′-methanesulfonyl-[1,1′-biphenyl]-4-carbonyl}-2-[3-methoxy-4-(1H-pyrazol-4-yl)phenyl]-2,8-diazaspiro[4.5]decan-1-one] |
| 0.1 | COc1cc(N2CCC3(CCN(C(=O)c4ccc(N5CCN(Cc6ccc(OCCCN(C)C)cc6)CC5)cc4)CC3)C2=O)ccc1-c1cn[nH]c1 [Example 237, 8-{4-[4-({4-[3-(dimethylamino)propoxy]phenyl}methyl)piperazin-1-yl]benzoyl}-2-[3-methoxy-4-(1H-pyrazol-4-yl)phenyl]-2,8-diazaspiro[4.5]decan-1-one] |
| 410 | COc1cc(N2CCC3(CCN(S(=O)(=O)c4ccc5[nH]c(=O)[nH]c(=O)c5c4)CC3)C2=O)ccc1-c1cn[nH]c1 [Example 209, 6-({2-[3-methoxy-4-(1H-pyrazol-4-yl)phenyl]-1-oxo-2,8-diazaspiro[4.5]decan-8-yl}sulfonyl)-1,2,3,4-tetrahydroquinazoline-2,4-dione] |
| 1.9 | COc1cc(N2CCC3(CCN(C(=O)c4ccc(N5CCN(Cc6cnc7ccccc7n6)CC5)cc4)CC3)C2=O)ccc1-c1cn[nH]c1 [Example 219, 2-[3-methoxy-4-(1H-pyrazol-4-yl)phenyl]-8-(4-{4-[(quinoxalin-2-yl)methyl]piperazin-1-yl}benzoyl)-2,8-diazaspiro[4.5]decan-1-one] |
| 14 | COc1cc2cc(C(=O)N3CCC4(CC3)CCN(c3ccc(-c5cn[nH]c5)c(OC)c3)C4=O)n(C)c2cc1OC [Example 178] |
| 2250 | COc1cccc(NC(=O)N2CCC3(CC2)CCN(c2ccc(-c4cn[nH]c4)c(OC)c2)C3=O)c1 [Example 216, 2-[3-methoxy-4-(1H-pyrazol-4-yl)phenyl]-N-(3-methoxyphenyl)-1-oxo-2,8-diazaspiro[4.5]decane-8-carboxamide] |
| 4.1 | COc1cc(N2CCC3(CCN(C(=O)c4ccc(N5CCN(Cc6ccc(C(F)(F)F)cc6)CC5)cc4)CC3)C2=O)ccc1-c1cn[nH]c1 [Example 234, 2-[3-methoxy-4-(1H-pyrazol-4-yl)phenyl]-8-[4-(4-{[4-(trifluoromethyl)phenyl]methyl}piperazin-1-yl)benzoyl]-2,8-diazaspiro[4.5]decan-1-one] |
| 38 | COc1cc(N2CCC3(CCN(C(=O)c4ccc(N)cc4Cl)CC3)C2=O)ccc1-c1cn[nH]c1 [Example 189, 8-(4-amino-2-chlorobenzol)-2-[3-methoxy-4-(1H-pyrazol-4-yl)phenyl]-2,8-diazaspiro[4.5]decan-1-one] |
| 12 | COc1ccc(C(=O)N2CCC3(CC2)CCN(c2ccc(-c4cn[nH]c4)c(OC)c2)C3=O)c(OCc2ccccc2)c1 [Example 184, 8-[2-(benzyloxy)-4-methoxybenzoyl]-2-[3-methoxy-4-(1H-pyrazol-4-yl)phenyl]-2,8-diazaspiro[4.5]decan-1-one] |
| 1 | COc1cc(N2CCC3(CCN(C(=O)c4ccc(N5CCN(CCC(F)(F)F)CC5)cc4)CC3)C2=O)ccc1-c1cn[nH]c1 [Example 240, 2-[3-methoxy-4-(1H-pyrazol-4-yl)phenyl]-8-{4-[4-(3,3,3-trifluoropropyl)piperazin-1-yl]benzoyl}-2,8-diazaspiro[4.5]decan-1-one] |
| 27 | COc1cc(N2CCC3(CCN(C(=O)c4ccc(CN5CCOCC5)cc4)CC3)C2=O)ccc1-c1cn[nH]c1 [Example 180, 2-[3-methoxy-4-(1H-pyrazol-4-yl)phenyl]-8-{4-[(morpholin-4-yl)methyl]benzoyl}-2,8-diazaspiro[4.5]decan-1-one] |
| 326 | COc1cc(N2CCC3(CCN(C(=O)c4cccc5ccncc45)CC3)C2=O)ccc1-c1cn[nH]c1 [Example 203, 8-(isoquinoline-8-carbonyl)-2-[3-methoxy-4-(1H-pyrazol-4-yl)phenyl]-2,8-diazaspiro[4.5]decan-1-one] |
| 2.2 | COc1cc(N2CCC3(CCN(C(=O)c4ccc(N5CCN(CCC(C)(C)C)CC5)cc4)CC3)C2=O)ccc1-c1cn[nH]c1 [Example 231, 8-{4-[4-(3,3-dimethylbutyl)piperazin-1-yl]benzoyl}-2-[3-methoxy-4-(1H-pyrazol-4-yl)phenyl]-2,8-diazaspiro[4.5]decan-1-one] |
